{"source": "patent US6897228B2", "about": "“Pyridoxine and pyridoxal analogues: new uses” (Medicure International Inc., priority 2000, dated 2005)", "test_system": "male Wistar rats, LAD occlusion and reperfusion", "experiment": "Rat cardiac ischemia reperfusion model", "format": "in vivo", "protocol": "Seventy-nine male Wistar rats (200-300 g, Tuck, Rayleigh, Essex, U.K.) were anesthetized with thiopentone sodium (Intraval®, 120 mg/kg i.p.; Rhone-Merrieux, Essex, U.K.). The rats were tracheotomized, intubated and ventilated with a Harvard ventilator (70 strokes/min, tidal volume: 8-10 ml/kg, inspiratory oxygen concentration: 30%). Body temperature was maintained at 38±1° C. The right carotid artery was cannulated and connected to a pressure transducer (Spectramed, P23XL) to monitor mean arterial blood pressure (MAP) and heart rate (HR), which were continuously recorded on a 4-channel Grass 7D polygraph recorder (Grass, Mass., U.S.A.). The right jugular vein was cannulated for the administration of drugs. Subsequently, a lateral thoracotomy was performed and the heart was suspended in a temporary pericardial cradle. A snare occluder was placed around the left anterior descending coronary artery (LAD). After completion of the surgical procedure the animals were allowed to stabilize for 30 min before LAD ligation. The coronary artery was occluded at time 0 by tightening of the occluder. After 25 min of acute myocardial ischemia, the occluder was re-opened to allow the reperfusion for 2 h. Following the 2 h reperfusion period, the coronary artery was re-occluded and Evans Blue dye (1 ml of 2% w/v) was injected into the left ventricle, via the right carotid artery cannula, to distinguish between perfused and non-perfused area at risk (AR) sections of the heart. The Evans Blue solution stains the perfused myocardium, while the occluded vascular bed remains uncolored. The animals were killed with an overdose of anesthetic and the heart excised. It was sectioned into slices of 3-4 mm, the right ventricular wall was removed, and the AR (pink) was separated from the non-ischemic (blue) area. The AR was cut into small pieces and incubated with p-nitroblue tetrazolium (NBT, 0.5 mg/ml) for 40 min at 37° C. In the presence of intact dehydrogenase enzyme systems (viable myocardium), nitro-blue tetrazolium (NBT) forms a dark blue formazan, whilst areas of necrosis lack dehydrogenase activity and therefore fail to stain. Pieces were separated according to staining and weighed to determine the infarct size as a percentage of the weight of the AR.\nThe following experimental groups were studied: • (1) Sham-operation (no occlusion of the LAD) plus administration of saline (Sham-Saline, 1 ml/kg i.v. n=9). • (2) LAD-occlusion (25 min) and reperfusion (2 h) plus administration of saline (myocardial infarction (“MI”)-Saline; 1 ml/kg i.v. bolus, 5 min prior to LAD occlusion) (n=10). • (3) LAD-occlusion and reperfusion plus administration of XL (25 mg/kg i.v. bolus at 5 min prior to LAD occlusion) (n=10).\nAll data were expressed as mean±s.e.mean of n observations, where n represented the number of animals studied. Infarct size was analyzed by 1-factorial ANOVA, followed by a Bonferroni's post hoc test for multiple comparisons. Hemodynamic data were analyzed by 2-way ANOVA followed by a Bonferroni's test. A P-value of less than 0.05 was considered to be statistically significant (when compared to Ml-Saline).", "key": {"[1]": {"details": "25 mg/kg i.v. bolus t = −5 mins, Baseline"}, "[2]": {"details": "25 mg/kg i.v. bolus, Occlusion 15 mins"}, "[3]": {"details": "25 mg/kg i.v. bolus, Occlusion 25 mins"}, "[4]": {"details": "25 mg/kg i.v. bolus, Reperfusion 60 mins"}, "[5]": {"details": "25 mg/kg i.v. bolus, Reperfusion 120 mins"}}, "data": [{"compound": "Cc1ncc(CNc2ccc(-c3ccc(C(=N)N)cc3)cc2)c(CO)c1O", "note": "[Compound XL]", "values": [{"measurement": "HR (heart rate)", "setting": "[1]", "value": "443 ± 9", "unit": "beats per min"}, {"measurement": "MAP (mean arterial pressure)", "setting": "[1]", "value": "121 ± 7", "unit": "mmHg"}, {"measurement": "PRI (pressure rate index)", "setting": "[1]", "value": "54 ± 3", "unit": "mmHg/min · 10^−3"}, {"measurement": "infarct size (percentage of the area at risk)", "setting": "25 mg/kg i.v. bolus, 5 minutes before regional ischemia, P<0.05, MI-Saline 48±3% of the AR", "value": "significant reduction"}, {"measurement": "HR (heart rate)", "setting": "[2]", "value": "435 ± 11", "unit": "beats per min"}, {"measurement": "MAP (mean arterial pressure)", "setting": "[2]", "value": "119 ± 6", "unit": "mmHg"}, {"measurement": "PRI (pressure rate index)", "setting": "[2]", "value": "52 ± 3", "unit": "mmHg/min · 10^−3"}, {"measurement": "HR (heart rate)", "setting": "[3]", "value": "460 ± 10", "unit": "beats per min"}, {"measurement": "MAP (mean arterial pressure)", "setting": "[3]", "value": "118 ± 6", "unit": "mmHg"}, {"measurement": "PRI (pressure rate index)", "setting": "[3]", "value": "55 ± 3", "unit": "mmHg/min · 10^−3"}, {"measurement": "HR (heart rate)", "setting": "[4]", "value": "412 ± 10", "unit": "beats per min"}, {"measurement": "MAP (mean arterial pressure)", "setting": "[4]", "value": "89 ± 8", "unit": "mmHg"}, {"measurement": "PRI (pressure rate index)", "setting": "[4]", "value": "36 ± 3", "unit": "mmHg/min · 10^−3"}, {"measurement": "HR (heart rate)", "setting": "[5]", "value": "414 ± 13", "unit": "beats per min"}, {"measurement": "MAP (mean arterial pressure)", "setting": "[5]", "value": "70 ± 7", "unit": "mmHg"}, {"measurement": "PRI (pressure rate index)", "setting": "[5]", "value": "29 ± 3", "unit": "mmHg/min · 10^−3"}, {"measurement": "fall in MAP compared with MI-rats treated with Saline", "setting": "25 mg/kg i.v., P>0.05", "value": "similar"}, {"measurement": "fall in PRI compared with MI-rats treated with Saline", "setting": "25 mg/kg i.v., P>0.05", "value": "similar"}, {"measurement": "effect on HR", "setting": "rats subjected to regional myocardial ischemia and reperfusion, P>0.05", "value": "no significant effect"}]}]}
